Laboratory results: the NIST ThermoML archive (doi:10.1021/acs.jced.6b00790)

Assay: mean ionic activity coefficient (dimensionless); mn = molality of the nth substance listed, in mol/kg
Conditions: 298.15 K, 100 kPa, Liquid, potentiometry

O=[N+]([O-])[O-].[Na+] [sodium nitrate] + O
Conditions	mean ionic activity coefficient
m1 = 0.01	0.893
m1 = 0.05	0.811
m1 = 0.1	0.766
m1 = 0.2001	0.697
m1 = 0.2999	0.663
m1 = 0.4	0.638
m1 = 0.5001	0.616
m1 = 0.5999	0.576
m1 = 0.7001	0.565
m1 = 0.7998	0.545
m1 = 0.9	0.518
m1 = 0.9999	0.502
